Test results as given in patent US7169568B2, “Method for screening molecules that exert a neurotrophic effect through activation of neurotrophin receptors” (New York University, priority 2000, dated 2007).

How the values were obtained:
[1] = tested on: NGF-differentiated PC12 cells; assay: Cell death assay (LDH release), NGF-differentiated PC12 cells after NGF and serum withdrawal; assay type: cell-based; details: one-time treatment, 48 hours in the absence of NGF, LDH release
Method: (§1) FIGS. 6A and 6B show graphs on the trophic effects of adenosine in PC12 and hippocampal cells deprived of neurotrophins. In FIG. 6A, NGF-differentiated PC12 cells were prepared and then NGF and serum were withdrawn for 48 hours as described in the Materials and Methods section of Example 1. Upon NGF withdrawal, various concentrations of CGS 21680 (CGS) were added to the media. CON =No Addition. […] In FIG. 6B, hippocampal neurons were prepared and B27 was withdrawn for 48 hrs as described in the Materials and Methods section of Example 1. Upon B27 withdrawal, various concentrations of CGS 21680 (CGS) were added to the media. […] All LDH levels were quantitated and % cell death calculated as described in the Materials and Methods section of Example 1. All bars depict mean+SEM from three independent experiments.
Cell Death Assay. PC12 cells were differentiated in Dulbecco's modified Eagle's medium (DMEM), supplemented with 0.33% fetal bovine serum, 0.67% heat-inactivated horse serum, 2 mM L-glutamine and NGF (50 ng/ml) for 7 days. Serum and NGF were then removed, and adenosine agonists or growth factors added to the media. After 48 hrs, cell death was quantified by measuring lactate dehydrogenase (LDH) released from injured cells into the media using the Cytox 96 Cytotoxicity Assay Kit (Promega, Madison, Wis.). LDH values were normalized by subtracting the LDH released by cells maintained in NGF (50 ng/ml) and scaling to a full kill (=100%) reference induced by 5 min treatment with 1% Triton, an exposure that consistently killed all PC12 cells.

Akt = Akt activation in PC12 cells (anti-phospho Akt immunoblot); assay type: cell-based; details: PC12 cells; adenosine 10 μM; CGS 21680 data not shown
Method: (§2) PC12 cells (615) were treated with adenosine (10 μM) for various times in the presence or absence of […] (100 nM) or LY294002 (10 μM). The cells were subsequently harvested in lysis buffer; lysates and immunoprecipitated samples were subsequently immunoblotted with anti-phospho MAP kinase, anti-phospho Akt, and anti-phosphotyrosine. Reprobing with anti-MAP kinase and anti-pan-Trk antibodies was carried out to ensure equal protein loading. To assess the activity of Akt, endogenous Akt can be immunoprecipitated from lysates with anti-Akt and the proteins assayed in Western blots with anti-phospho-Akt antibodies. Use of the anti-Akt antibody versus the anti-phospho-Akt antibody on lysates can give a comparative assessment of the relative level of the enzyme and extent of activation (Kim et al., 2001). […] and Immunoblotting. PC12 cells or PC12-615 cells (Hempstead et al, 1992), were maintained in Dulbecco's Modified Eagle's Medium (DMEM) containing 10% fetal bovine serum (FBS) supplemented with 100 units/ml penicillin, 100 μg/ml streptomycin, and 2 mM glutamine plus 200 μg/ml G418. Cells were placed in low serum medium (1% FBS, 0.5% horse serum) overnight prior to experiments. Cell lysates from PC12, 615 cells, or hippocampal cells were incubated in lysis buffer (1% NP40) for 4 hours to overnight at 4° C. with anti-pan-Trk polyclonal antibody, followed by incubation with protein A-Sepharose beads. Equivalent amounts of protein were analyzed for each condition. The beads' were washed five times with lysis buffer and the immune complexes were boiled in SDS-sample buffer and loaded on sodium dodecyl sulfate-polyacrylamide electrophoresis (SDS-PAGE) gels for immunoblot analysis. The immunoreactive protein bands were detected by ECL reagents based upon enhanced chemiluminescence procedure (Amersham Pharmacia).

hippocampal neurons = assay: Cell death assay (LDH release), hippocampal neurons after B27 withdrawal; assay type: cell-based, rat
Method: as §1, with “.” for “FIGS. 6A and 6B show graphs on the trophic effects of adenosine in PC12 and hippocampal cells deprived of neurotrophins.”
Hippocampal Cell Cultures. Dissociated primary cultures of hippocampal neurons from embryonic day 17 (E17) rats were prepared from timed-pregnant Sprague-Dawley rats as described previously (Aibel et al, 1998). Fetuses were removed under sterile conditions and kept in PBS on ice for microscopic dissection of the hippocampus. The meninges were removed and the tissue was placed in Neurobasal media (Gibco BRL). The tissue was briefly minced with fine forceps and then triturated with a fire polished pasteur pipet. Cells were counted and then plated on culture wells coated with 0.01 mg/ml poly-D-lysine overnight. Hippocampal cells were maintained in Neurobasal media, containing B27 supplement and L-glutamine (0.5 mM). Experiments were conducted 7–10 days after plating.
Hippocampal neurons were maintained in Neurobasal media containing B27 supplement and 0.5 mM L-glutamine for 10 days. B27 was then removed, and adenosine agonists or BDNF (100 ng/ml) was added to the media. MK-801 (1 μM) was added to all conditions, to decrease the contribution of NMDA-mediated cell death. After 48 hrs, cell death was assessed by measurement of LDH released into media.

MAP kinase = MAP kinase activation in PC12 cells (anti-phospho MAP kinase immunoblot); assay type: cell-based; details: PC12 cells, adenosine 10 μM, within 10 minutes
Method: as §2, with “loading.” for “loading. To assess the activity of Akt, endogenous Akt can be immunoprecipitated from lysates with anti-Akt and the proteins assayed in Western blots with anti-phospho-Akt antibodies. Use of the anti-Akt antibody versus the anti-phospho-Akt antibody on lysates can give a comparative assessment of the relative level of the enzyme and extent of activation (Kim et al., 2001).”, “The beads' were washed five times with lysis buffer and the immune complexes were boiled in SDS-sample buffer and loaded on sodium dodecyl sulfate-polyacrylamide electrophoresis (SDS-PAGE) gels for immunoblot analysis.” left out

SMILES | Cells rescued [1] | Activation of Akt (phospho-specific antibody) (Akt) | Cells rescued (hippocampal neurons; 48 hrs after B27 withdrawal, absence of BDNF, LDH release) | Dose dependence of survival action (hippocampal neurons; various concentrations upon B27 withdrawal) | Phosphorylated MAP kinase (MAP kinase)
CCNC(=O)[C@H]1O[C@@H](n2cnc3c(N)nc(NCCc4ccc(CCC(=O)O)cc4)nc32)[C@H](O)[C@@H]1O [CGS 21680, 2-[(4-(2-carboxyethyl)phenylethyl)]aminoadenosine-5′-N-ethylcarboxamide] | ~50% | able to activate Akt | greater than 60% | dose-dependent | 
Nc1ncnc2c1ncn2[C@@H]1O[C@H](CO)[C@@H](O)[C@H]1O [adenosine] |  | able to activate Akt |  |  | marked increased in phosphorylated MAP kinase
